Data taken from PubChem BioAssay AID1963420 (Molecular Pharmacology Branch, DTP, NCI, 2024).

Test system: 494315-158-R-J1-PDC complex spheroid growth, percent test/control
Experiment: Anticancer human tumor 494315-158-R-J1-PDC patient-derived soft tissue sarcoma cell line growth inhibition [Asc]
Settings: for IC50: curve of first compound; for viability, T/C: stronger effect = lower value
Method in brief: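 Tumor cells were grown as complex spheroids with human endothelial cells (HUVEC) and human mesenchymal stem cells as stroma. Agents were tested alone and in combination, in half-log steps down from the clinical Cmax, or from 10 microM where Cmax was unknown.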

[1] = second compound 0.01 µM, first compound 0.0316 µM
[2] = second compound 0.01 µM, first compound 0.1 µM
[3] = second compound 0.0316 µM, first compound 0.0316 µM
[4] = second compound 0.0316 µM, first compound 0.1 µM
[5] = second compound 0.1 µM, first compound 0.0316 µM
[6] = second compound 0.1 µM, first compound 0.1 µM
[7] = second compound 0.316 µM, first compound 0.0316 µM
[8] = second compound 0.316 µM, first compound 0.1 µM
[9] = second compound 1 µM, first compound 0.0316 µM
[10] = second compound 1 µM, first compound 0.1 µM
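Further: compound exposure lasted seven days after spheroids formed for three days.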

In the case of `Cc1nc(N2CCC3(CC2)COC(C)C3N)c(CO)nc1Sc1ccnc(N)c1Cl` (stereo not given) + CCN1C(C(=O)NC23CCC(C(=O)O)(CC2)CC3)C(c2cccc(Cl)c2F)C2(C(=O)Nc3cc(Cl)ccc32)C12CCCCC2, the IC50 (second compound 0.03 µM) is reported as > 3000 nM, the IC50 (second compound 0.0949 µM) is reported as 1430 nM and the IC50 (second compound 0.3 µM) is reported as 915 nM. For the same compound, the IC50 (second compound 0.949 µM) was 601 nM, the IC50 (second compound 3 µM) was 718 nM and the viability, T/C (second compound 0.03 µM, first compound 0.00949 µM) was 102%. The viability, T/C (second compound 0.03 µM, first compound 0.03 µM) was 90.3%, the viability, T/C (second compound 0.03 µM, first compound 0.0949 µM) was 70.8% and the viability, T/C (second compound 0.03 µM, first compound 0.3 µM) was 64.2%. The viability, T/C (second compound 0.03 µM, first compound 0.949 µM) was 51.5%, the viability, T/C (second compound 0.03 µM, first compound 3 µM) was 58.4% and the viability, T/C (second compound 0.0949 µM, first compound 0.00949 µM) was 83.8%. For the same compound, the viability, T/C (second compound 0.0949 µM, first compound 0.03 µM) was 83.6%, the viability, T/C (second compound 0.0949 µM, first compound 0.0949 µM) was 72% and the viability, T/C (second compound 0.0949 µM, first compound 0.3 µM) was 69%. For the same compound, the viability, T/C (second compound 0.0949 µM, first compound 0.949 µM) was 59.5%, the viability, T/C (second compound 0.0949 µM, first compound 3 µM) was 36.4% and the viability, T/C (second compound 0.3 µM, first compound 0.00949 µM) was 79.6%. For the same compound, the viability, T/C (second compound 0.3 µM, first compound 0.03 µM) was 89.9%, the viability, T/C (second compound 0.3 µM, first compound 0.0949 µM) was 81.7% and the viability, T/C (second compound 0.3 µM, first compound 0.3 µM) was 68.3%. For the same compound, the viability, T/C (second compound 0.3 µM, first compound 0.949 µM) was 50.4%, the viability, T/C (second compound 0.3 µM, first compound 3 µM) was 37.1% and the viability, T/C (second compound 0.949 µM, first compound 0.00949 µM) was 89.3%. The viability, T/C (second compound 0.949 µM, first compound 0.03 µM) was 87.2%, the viability, T/C (second compound 0.949 µM, first compound 0.0949 µM) was 76.9% and the viability, T/C (second compound 0.949 µM, first compound 0.3 µM) was 63.4%. For the same compound, the viability, T/C (second compound 0.949 µM, first compound 0.949 µM) was 40%, the viability, T/C (second compound 0.949 µM, first compound 3 µM) was 37.6% and the viability, T/C (second compound 3 µM, first compound 0.00949 µM) was 80.9%. The viability, T/C (second compound 3 µM, first compound 0.03 µM) was 86%, the viability, T/C (second compound 3 µM, first compound 0.0949 µM) was 78.2% and the viability, T/C (second compound 3 µM, first compound 0.3 µM) was 62.2%. For the same compound, the viability, T/C (second compound 3 µM, first compound 0.949 µM) was 47.1% and the viability, T/C (second compound 3 µM, first compound 3 µM) was 32.5%.

`Cn1ncnc1[C@H]1c2n[nH]c(=O)c3cc(F)cc(c23)N[C@@H]1c1ccc(F)cc1` + CNC(C)C(=O)NC1CN(S(=O)(=O)c2cccc(S(=O)(=O)N3CCC4CCC(C(=O)NC(c5ccccc5)c5ccccc5)N4C(=O)C(NC(=O)C(C)NC)C3)c2)CCC2CCC(C(=O)NC(c3ccccc3)c3ccccc3)N2C1=O gave an IC50 (second compound 0.01 µM) of 34.3 nM, an IC50 (second compound 0.0316 µM) of 3.18 nM and an IC50 (second compound 0.1 µM) of 0.316 nM. The IC50 (second compound 0.316 µM) was < 0.316 nM, the IC50 (second compound 1 µM) was < 0.316 nM and the viability, T/C (second compound 0.01 µM, first compound 0.000316 µM) was 65.8%. The viability, T/C (second compound 0.01 µM, first compound 0.001 µM) was 73%, the viability, T/C (second compound 0.01 µM, first compound 0.00316 µM) was 59.1% and the viability, T/C (second compound 0.01 µM, first compound 0.01 µM) was 53.5%. It also gave a viability, T/C [1] of 49.6%, a viability, T/C [2] of 46.1% and a viability, T/C (second compound 0.0316 µM, first compound 0.000316 µM) of 56.5%. The viability, T/C (second compound 0.0316 µM, first compound 0.001 µM) was 59.9%, the viability, T/C (second compound 0.0316 µM, first compound 0.00316 µM) was 50.1% and the viability, T/C (second compound 0.0316 µM, first compound 0.01 µM) was 36.8%. For the same compound, the viability, T/C [3] was 38%, the viability, T/C [4] was 34.1% and the viability, T/C (second compound 0.1 µM, first compound 0.000316 µM) was 44.1%. It also gave a viability, T/C (second compound 0.1 µM, first compound 0.001 µM) of 53.4%, a viability, T/C (second compound 0.1 µM, first compound 0.00316 µM) of 49.6% and a viability, T/C (second compound 0.1 µM, first compound 0.01 µM) of 32%. The viability, T/C [5] was 33.4%, the viability, T/C [6] was 31.2% and the viability, T/C (second compound 0.316 µM, first compound 0.000316 µM) was 49.9%. It also gave a viability, T/C (second compound 0.316 µM, first compound 0.001 µM) of 38.8%, a viability, T/C (second compound 0.316 µM, first compound 0.00316 µM) of 33.7% and a viability, T/C (second compound 0.316 µM, first compound 0.01 µM) of 29.4%. For the same compound, the viability, T/C [7] was 27.2%, the viability, T/C [8] was 26.4% and the viability, T/C (second compound 1 µM, first compound 0.000316 µM) was 41.1%. For the same compound, the viability, T/C (second compound 1 µM, first compound 0.001 µM) was 40.1%, the viability, T/C (second compound 1 µM, first compound 0.00316 µM) was 38.5% and the viability, T/C (second compound 1 µM, first compound 0.01 µM) was 26.9%. For the same compound, the viability, T/C [9] was 29% and the viability, T/C [10] was 22.6%.

In the case of `O=C(c1cc(Cc2n[nH]c(=O)c3ccccc23)ccc1F)N1CCN(C(=O)C2CC2)CC1` + CNC(C)C(=O)NC1CN(S(=O)(=O)c2cccc(S(=O)(=O)N3CCC4CCC(C(=O)NC(c5ccccc5)c5ccccc5)N4C(=O)C(NC(=O)C(C)NC)C3)c2)CCC2CCC(C(=O)NC(c3ccccc3)c3ccccc3)N2C1=O, the IC50 (second compound 0.01 µM) is reported as 2430 nM, the IC50 (second compound 0.0316 µM) is reported as 384 nM and the IC50 (second compound 0.1 µM) is reported as < 31.6 nM. For the same compound, the IC50 (second compound 0.316 µM) was < 31.6 nM, the IC50 (second compound 1 µM) was < 31.6 nM and the viability, T/C [1] was 66.3%. For the same compound, the viability, T/C [2] was 73.2%, the viability, T/C (second compound 0.01 µM, first compound 0.316 µM) was 60.3% and the viability, T/C (second compound 0.01 µM, first compound 1 µM) was 70.3%. The viability, T/C (second compound 0.01 µM, first compound 3.16 µM) was 44.8%, the viability, T/C (second compound 0.01 µM, first compound 10 µM) was 27.5% and the viability, T/C [3] was 51.8%. It also gave a viability, T/C [4] of 52%, a viability, T/C (second compound 0.0316 µM, first compound 0.316 µM) of 52.1% and a viability, T/C (second compound 0.0316 µM, first compound 1 µM) of 43.9%. For the same compound, the viability, T/C (second compound 0.0316 µM, first compound 3.16 µM) was 41.9%, the viability, T/C (second compound 0.0316 µM, first compound 10 µM) was 20% and the viability, T/C [5] was 41%. The viability, T/C [6] was 46.4%, the viability, T/C (second compound 0.1 µM, first compound 0.316 µM) was 46.3% and the viability, T/C (second compound 0.1 µM, first compound 1 µM) was 39.1%. For the same compound, the viability, T/C (second compound 0.1 µM, first compound 3.16 µM) was 33.2%, the viability, T/C (second compound 0.1 µM, first compound 10 µM) was 19.8% and the viability, T/C [7] was 37.2%. It also gave a viability, T/C [8] of 38%, a viability, T/C (second compound 0.316 µM, first compound 0.316 µM) of 42.8% and a viability, T/C (second compound 0.316 µM, first compound 1 µM) of 35.8%. The viability, T/C (second compound 0.316 µM, first compound 3.16 µM) was 27.5%, the viability, T/C (second compound 0.316 µM, first compound 10 µM) was 14.3% and the viability, T/C [9] was 33.8%. It also gave a viability, T/C [10] of 39.4%, a viability, T/C (second compound 1 µM, first compound 0.316 µM) of 40.2% and a viability, T/C (second compound 1 µM, first compound 1 µM) of 31.8%. It also gave a viability, T/C (second compound 1 µM, first compound 3.16 µM) of 22.3% and a viability, T/C (second compound 1 µM, first compound 10 µM) of 13.6%.
